Measurements: patent US11180494B2, “Substituted amino acids as integrin inhibitors” (Pliant Therapeutics, Inc., priority 2018, dated 2021)

Biological target: human integrin αvβ6 (Homo sapiens (Human), UniProt P06756+P18564)
Assay: Proximity-based integrin receptor binding assay (ALPHASCREEN) for inhibitor potency
Details: inhibition of binding of TGF-b1 LAP to human integrin αvβ6; values given in ranges
Method in brief: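 AlphaScreen: integrin, compound, TGF-b1 LAP, biotinylated anti-LAP antibody and acceptor beads incubated 2 hours, then streptavidin donor beads 30 minutes, at room temperature in 50 mM Tris-HCl pH 7.5, 0.1% BSA, 1 mM CaCl2 and MgCl2. Excitation 680 nm, emission 520-620 nm; IC50 by four-parameter logistic fit.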

Chain of human integrin αvβ6 (P06756 31-992): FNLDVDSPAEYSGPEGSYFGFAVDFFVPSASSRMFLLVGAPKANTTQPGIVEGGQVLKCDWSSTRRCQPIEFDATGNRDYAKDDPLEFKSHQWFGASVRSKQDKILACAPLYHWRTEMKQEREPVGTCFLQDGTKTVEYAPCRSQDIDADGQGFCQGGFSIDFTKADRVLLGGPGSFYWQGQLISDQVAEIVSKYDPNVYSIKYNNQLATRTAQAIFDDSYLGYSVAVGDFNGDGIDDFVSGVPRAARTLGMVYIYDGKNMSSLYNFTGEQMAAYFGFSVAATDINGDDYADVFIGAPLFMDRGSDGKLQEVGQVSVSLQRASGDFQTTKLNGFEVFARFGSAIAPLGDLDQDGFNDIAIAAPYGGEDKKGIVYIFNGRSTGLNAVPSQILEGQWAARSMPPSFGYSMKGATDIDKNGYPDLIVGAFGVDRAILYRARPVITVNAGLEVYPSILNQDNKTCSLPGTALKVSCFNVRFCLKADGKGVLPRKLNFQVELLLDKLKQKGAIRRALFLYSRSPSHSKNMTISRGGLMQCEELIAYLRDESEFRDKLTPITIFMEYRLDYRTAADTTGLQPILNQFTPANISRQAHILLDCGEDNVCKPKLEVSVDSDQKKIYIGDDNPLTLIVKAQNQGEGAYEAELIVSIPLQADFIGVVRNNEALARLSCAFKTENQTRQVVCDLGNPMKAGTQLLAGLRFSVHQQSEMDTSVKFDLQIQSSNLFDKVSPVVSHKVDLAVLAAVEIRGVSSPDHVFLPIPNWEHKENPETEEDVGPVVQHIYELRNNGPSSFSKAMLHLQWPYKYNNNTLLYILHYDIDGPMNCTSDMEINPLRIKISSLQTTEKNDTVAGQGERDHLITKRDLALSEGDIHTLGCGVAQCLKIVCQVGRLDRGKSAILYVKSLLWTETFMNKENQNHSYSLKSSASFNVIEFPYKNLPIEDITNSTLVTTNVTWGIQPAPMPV
Chain of human integrin αvβ6 (P18564 22-707): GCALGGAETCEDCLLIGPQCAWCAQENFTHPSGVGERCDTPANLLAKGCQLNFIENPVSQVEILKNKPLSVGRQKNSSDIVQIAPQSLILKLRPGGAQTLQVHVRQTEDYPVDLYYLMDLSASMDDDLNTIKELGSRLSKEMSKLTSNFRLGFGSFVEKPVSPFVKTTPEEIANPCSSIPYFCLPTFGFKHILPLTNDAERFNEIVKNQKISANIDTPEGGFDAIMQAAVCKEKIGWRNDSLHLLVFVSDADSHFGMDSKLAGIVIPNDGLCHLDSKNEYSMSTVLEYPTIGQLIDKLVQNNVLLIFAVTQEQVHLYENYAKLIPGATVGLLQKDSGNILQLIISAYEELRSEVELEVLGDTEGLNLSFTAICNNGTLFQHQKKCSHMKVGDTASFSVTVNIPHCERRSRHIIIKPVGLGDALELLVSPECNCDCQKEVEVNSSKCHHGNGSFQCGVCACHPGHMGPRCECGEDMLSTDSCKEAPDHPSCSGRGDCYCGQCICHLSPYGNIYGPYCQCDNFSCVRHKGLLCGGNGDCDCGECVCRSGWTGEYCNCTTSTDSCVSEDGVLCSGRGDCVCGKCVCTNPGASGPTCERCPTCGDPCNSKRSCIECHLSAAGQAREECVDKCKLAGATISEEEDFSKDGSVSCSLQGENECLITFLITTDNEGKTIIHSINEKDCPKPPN

`CC1(C(=O)N[C@@H](CCO[C@H]2C[C@H](CCc3ccc4c(n3)NCCC4)C2)C(=O)O)CCOCC1` [Compound 164, N-(4-methyltetrahydro-2H-pyran-4-carbonyl)-O-(trans-3-(2-(5,6,7,8-tetrahydro-1,8-naphthyridin-2-yl)ethyl)cyclobutyl)homoserine] and `CC(C)(C(=O)N[C@@H](CCO[C@H]1C[C@H](CCc2ccc3c(n2)NCCC3)C1)C(=O)O)C1CCCCC1` [Compound 165, N-(2-cyclohexyl-2-methylpropanoyl)-O-(trans-3-(2-(5,6,7,8-tetrahydro-1,8-naphthyridin-2-yl)ethyl)cyclobutyl)homoserine] cannot be ordered by IC50: under 50 nM for the first, under 50 nM for the second.

`O=C(N[C@@H](CCO[C@H]1C[C@H](CCc2ccc3c(n2)NCCC3)C1)C(=O)O)c1ccccc1-c1ccccn1` [Compound 166, N-(2-(pyridin-2-yl)benzoyl)-O-(trans-3-(2-(5,6,7,8-tetrahydro-1,8-naphthyridin-2-yl)ethyl)cyclobutyl)homoserine] and `O=C(N[C@@H](CCO[C@H]1C[C@H](CCc2ccc3c(n2)NCCC3)C1)C(=O)O)c1ccccc1N1CCOCC1` [Compound 168, N-(2-morpholinobenzoyl)-O-(trans-3-(2-(5,6,7,8-tetrahydro-1,8-naphthyridin-2-yl)ethyl)cyclobutyl)homoserine] fall in the same range of IC50: 50 to 250 nM for the first, 50 to 250 nM for the second.

First: CCC(CC)(C(=O)N[C@@H](CCO[C@H]1C[C@H](CCc2ccc3c(n2)NCCC3)C1)C(=O)O)c1ccccc1 [Compound 169, N-(2-ethyl-2-phenylbutanoyl)-O-(trans-3-(2-(5,6,7,8-tetrahydro-1,8-naphthyridin-2-yl)ethyl)cyclobutyl)homoserine]
Second: N#CC1(C(=O)N[C@@H](CCO[C@H]2C[C@H](CCc3ccc4c(n3)NCCC4)C2)C(=O)O)CCOCC1 [Compound 171, N-(4-cyanotetrahydro-2H-pyran-4-carbonyl)-O-(trans-3-(2-(5,6,7,8-tetrahydro-1,8-naphthyridin-2-yl)ethyl)cyclobutyl)homoserine]
The IC50 of the first is higher: 50 to 250 nM for the first, under 50 nM for the second.

`CC(C)(C)OC(=O)N1CC(C)(C(=O)N[C@@H](CCO[C@H]2C[C@H](CCc3ccc4c(n3)NCCC4)C2)C(=O)O)C1` [Compound 172, N-(1-(tert-butoxycarbonyl)-3-methylazetidine-3-carbonyl)-O-(trans-3-(2-(5,6,7,8-tetrahydro-1,8-naphthyridin-2-yl)ethyl)cyclobutyl)homoserine] and `CC(C)(C)OC(=O)N1CC(C(=O)N[C@@H](CCO[C@H]2C[C@H](CCc3ccc4c(n3)NCCC4)C2)C(=O)O)C1` [Compound 173, N-(1-(tert-butoxycarbonyl)azetidine-3-carbonyl)-O-(trans-3-(2-(5,6,7,8-tetrahydro-1,8-naphthyridin-2-yl)ethyl)cyclobutyl)homoserine] cannot be ordered by IC50: under 50 nM for the first, under 50 nM for the second.

`O=C(O)[C@H](CCO[C@H]1C[C@H](CCc2ccc3c(n2)NCCC3)C1)NC(=O)C1(C(F)(F)F)CCOCC1` [Compound 174, O-(trans-3-(2-(5,6,7,8-tetrahydro-1,8-naphthyridin-2-yl)ethyl)cyclobutyl)-N-(4-(trifluoromethyl)tetrahydro-2H-pyran-4-carbonyl)homoserine] and `Cc1cc(F)cc(C)c1C(=O)NC(CCOC1CC(CCc2ccc3c(n2)NCCC3)C1)C(=O)O` (stereo not drawn) [Compound 175] cannot be ordered by IC50: under 50 nM for the first, under 50 nM for the second.

First: CC1(C(=O)N[C@@H](CCO[C@H]2C[C@@H](CCc3ccc4c(n3)NCCC4)C2)C(=O)O)CCOCC1 [Compound 179, N-(4-methyltetrahydro-2H-pyran-4-carbonyl)-O-(cis-3-(2-(5,6,7,8-tetrahydro-1,8-naphthyridin-2-yl)ethyl)cyclobutyl) homoserine]
Second: CCC1(C(=O)N[C@@H](CCO[C@H]2C[C@H](CCc3ccc4c(n3)NCCC4)C2)C(=O)O)CCC(F)(F)CC1 [Compound 181, N-(1-ethyl-4,4-difluorocyclohexane-1-carbonyl)-O-(trans-3-(2-(5,6,7,8-tetrahydro-1,8-naphthyridin-2-yl)ethyl)cyclobutyl)homoserine]
The IC50 of the first is higher: 50 to 250 nM for the first, under 50 nM for the second.

`Cc1ccc2c(c1)N(C(=O)C1(C(=O)N[C@@H](CCO[C@H]3C[C@H](CCc4ccc5c(n4)NCCC5)C3)C(=O)O)CC1)CC2` [Compound 182, N-(1-(6-methylindoline-1-carbonyl)cyclopropane-1-carbonyl)-O-(trans-3-(2-(5,6,7,8-tetrahydro-1,8-naphthyridin-2-yl)ethyl)cyclobutyl)homoserine] and `O=C(O)[C@H](CCO[C@H]1C[C@@H](CCc2ccc3c(n2)NCCC3)C1)NC(=O)C1(C(F)(F)F)CCOCC1` [Compound 183, O-(cis-3-(2-(5,6,7,8-tetrahydro-1,8-naphthyridin-2-yl)ethyl)cyclobutyl)-N-(4-(trifluoromethyl)tetrahydro-2H-pyran-4-carbonyl)homoserine] fall in the same range of IC50: 50 to 250 nM for the first, 50 to 250 nM for the second.

`CC(C)(C)OC(=O)NCC1(C(=O)N[C@@H](CCO[C@H]2C[C@@H](CCc3ccc4c(n3)NCCC4)C2)C(=O)O)CCOCC1` [Compound 184, N-(4-(((tert-butoxycarbonyl)amino)methyl)tetrahydro-2H-pyran-4-carbonyl)-O-(cis-3-(2-(5,6,7,8-tetrahydro-1,8-naphthyridin-2-yl)ethyl)cyclobutyl)homoserine] and `O=C(O)[C@H](CCO[C@H]1C[C@H](CCc2ccc3c(n2)NCCC3)C1)NC(=O)C1(Cc2cccnc2)CC1` [Compound 185, N-(1-(pyridin-3-ylmethyl)cyclopropane-1-carbonyl)-O-(trans-3-(2-(5,6,7,8-tetrahydro-1,8-naphthyridin-2-yl)ethyl)cyclobutyl)homoserine] cannot be ordered by IC50: under 50 nM for the first, under 50 nM for the second.

Compared with `CC1(C(=O)NC(CCOCCCCc2ccc3c(n2)NCCC3)C(=O)O)CCOCC1` (stereo not drawn) [Compound 187, N-(4-methyltetrahydro-2H-pyran-4-carbonyl)-O-(4-(5,6,7,8-tetrahydro-1,8-naphthyridin-2-yl)butyl)homoserine], `O=C(NC(CCOCCCCc1ccc2c(n1)NCCC2)C(=O)O)c1c(Cl)cccc1Cl` (stereo not drawn) [Compound 188, N-(2,6-dichlorobenzoyl)-O-(4-(5,6,7,8-tetrahydro-1,8-naphthyridin-2-yl)butyl)homoserine] is lower in IC50: 250 to 1000 nM for the first, 50 to 250 nM for the second.

First: O=C(NC(CCOCCCCc1ccc2c(n1)NCCC2)C(=O)O)c1c(Cl)cncc1Cl (stereo not drawn) [Compound 189, N-(3,5-dichloroisonicotinoyl)-O-(4-(5,6,7,8-tetrahydro-1,8-naphthyridin-2-yl)butyl)homoserine]
Second: CC(C)(C)c1ccc(C2(C(=O)N[C@@H](CCO[C@H]3C[C@H](CCc4ccc5c(n4)NCCC5)C3)C(=O)O)CCC2)cc1 [Compound 190, N-(1-(4-(tert-butyl)phenyl)cyclobutane-1-carbonyl)-O-(trans-3-(2-(5,6,7,8-tetrahydro-1,8-naphthyridin-2-yl)ethyl)cyclobutyl)homoserine]
The IC50 of the first is higher: 50 to 250 nM for the first, under 50 nM for the second.

`Cc1cncc(Cl)c1C(=O)N[C@@H](CCO[C@H]1C[C@@H](CCc2ccc3c(n2)NCCC3)C1)C(=O)O` [Compound 199, N-(3-chloro-5-methylisonicotinoyl)-O-(cis-3-(2-(5,6,7,8-tetrahydro-1,8-naphthyridin-2-yl)ethyl)cyclobutyl)homoserine] and `CC(C)(C)OC(=O)NC(CCO[C@H]1C[C@H](CCc2ccc3c(n2)NCCC3)C1)C(=O)O` (stereo partly drawn) [Example 12A, N-(tert-butoxycarbonyl)-O-(trans-3-(2-(5,6,7,8-tetrahydro-1,8-naphthyridin-2-yl)ethyl)cyclobutyl)homoserine] fall in the same range of IC50: 50 to 250 nM for the first, 50 to 250 nM for the second.

First: O=C(O)[C@H](CCO[C@H]1C[C@H](CCc2ccc3c(n2)NCCC3)C1)Nc1ncnc2ccccc12 [Example 224, N-(quinazolin-4-yl)-O-(trans-3-(2-(5,6,7,8-tetrahydro-1,8-naphthyridin-2-yl)ethyl)cyclobutyl)homoserine]
Second: CC(C)(C)c1nccc(N[C@@H](CCO[C@H]2C[C@H](CCc3ccc4c(n3)NCCC4)C2)C(=O)O)n1 [Example 225, N-(2-(tert-butyl)pyrimidin-4-yl)-O-(trans-3-(2-(5,6,7,8-tetrahydro-1,8-naphthyridin-2-yl)ethyl)cyclobutyl)homoserine]
The IC50 of the first is lower: under 50 nM for the first, 250 to 1000 nM for the second. The first is the more potent here.

`CC(C)(C)c1ccnc(N[C@@H](CCO[C@H]2C[C@H](CCc3ccc4c(n3)NCCC4)C2)C(=O)O)n1` [Example 226, N-(4-(tert-butyl)pyrimidin-2-yl)-O-(trans-3-(2-(5,6,7,8-tetrahydro-1,8-naphthyridin-2-yl)ethyl)cyclobutyl)homoserine] and `O=C(O)C(CCO[C@H]1C[C@H](CCc2ccc3cccnc3n2)C1)Nc1ncnc2ccccc12` (stereo partly drawn) [Example 227, O-(trans-3-(2-(1,8-naphthyridin-2-yl)ethyl)cyclobutyl)-N-(quinazolin-4-yl)homoserine] fall in the same range of IC50: 250 to 1000 nM for the first, 250 to 1000 nM for the second.

First: O=C(O)C(CCO[C@H]1C[C@H](CCc2ccc3cccnc3n2)C1)Nc1ncnc2ccccc12 (stereo partly drawn) [Example 228, O-(trans-3-(2-(1,8-naphthyridin-2-yl)ethyl)cyclobutyl)-N-(quinazolin-4-yl)homoserine]
Second: CC(C)(C)c1cc(N[C@@H](CCO[C@H]2C[C@H](CCc3ccc4c(n3)NCCC4)C2)C(=O)O)ncn1 [Example 229, N-(6-(tert-butyl)pyrimidin-4-yl)-O-(trans-3-(2-(5,6,7,8-tetrahydro-1,8-naphthyridin-2-yl)ethyl)cyclobutyl)homoserine]
The IC50 of the first is lower: under 50 nM for the first, 50 to 250 nM for the second.

“N-isonicotinoyl-O-(trans-3-(2-(5,6,7,8-tetrahydro-1,8-naphthyridin-2-yl)ethyl)cyclobutyl)-D-homoserine [Compound 58]” and “N—((R)-2-hydroxy-2-phenylacetyl)-O-(4-(5,6,7,8-tetrahydro-1,8-naphthyridin-2-yl)butyl)-D-homoserine [Compound 77]” cannot be ordered by IC50: over 1000 nM for the first, over 1000 nM for the second.
